From patent publication US20210138025A1, “CATIONIC PEPTIDES WITH IMMUNOMODULATORY AND/OR ANTI-BIOFILM ACTIVITIES” (priority 2018, published 2021)
Like-named read-outs stand apart in the source and are kept apart here. No end group written: not given here.

How the values were obtained:
MCP-1 = MCP-1 chemokine induction in human PBMCs, ELISA (Tables 6, 7; FIGS. 6-9, 13); type: cell-based; conditions: SPOT synthesized control peptides, determined as in Table 6; Table 7
Procedure: Venous blood (20 ml) from healthy volunteers was collected in Vacutainer® collection tubes containing sodium heparin as an anticoagulant (Becton Dickinson, Mississauga, ON) in accordance with UBC ethical approval and guidelines. Blood was diluted 1:1 with complete RPMI 1640 medium and separated by centrifugation over a Ficoll-Paque® Plus (Amersham Biosciences, Piscataway, N.J., USA) density gradient. White blood cells were isolated from the buffy coat, washed twice in PBS and then resuspended in RPMI 1640 complete medium (containing 10% fetal bovine serum), and the number of peripheral blood mononuclear cells (PBMC) was determined by Trypan blue exclusion. PBMCs (5×10^5) were seeded into 12-well tissue culture dishes (Falcon; Becton Dickinson) at 0.75-1×10^6 cells/ml at 37° C. in 5% CO2. The above conditions were chosen to mimic conditions for circulating blood monocytes entering tissues at the site of infection via extravasation.
Following incubation of the cells under various treatment regimens, the tissue culture supernatants were centrifuged at 1000×g for 5 min, then at 10,000×g for 2 min to obtain cell-free samples. Supernatants were aliquoted and then stored at −20° C. prior to assay for various chemokines by capture ELISA (eBioscience and BioSource International Inc., CA, USA respectively)

IL-1β = test: Suppression of LPS-induced IL-1β production in human PBMCs, ELISA (Tables 6, 7; FIGS. 6-9, 13); conditions: SPOT synthesized control peptides, determined as in Table 6; Table 7
S. aureus (MRSA SAP0017) = type: cell-based, Staphylococcus aureus; conditions: SPOT synthesized control peptides, determined as in Table 5; Table 7
In short: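 Static biofilm assay: 1/100 dilutions of overnight cultures grown with peptide at varying concentrations, added at time zero, in BM2 biofilm medium or tryptic soy broth plus 1% glucose in polypropylene plates. After 22-46 h, adherent biofilm stained with crystal violet and absorbance read at 595 nm.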

PBMCs = test: Cytotoxicity towards PBMCs, lactate dehydrogenase (LDH) release assay (Tables 6, 7); conditions: SPOT synthesized peptide ~25 μM, PBMCs from 3 human donors; Table 6
[1] = system: planktonic methicillin resistant S. aureus; test: microbe, parasite or virus in culture; type: cell-based, Staphylococcus aureus
S. aureus (Sau) [2] = type: cell-based
E. coli (Ec) [3] = type: cell-based
S. aureus (Sau) [4] = type: cell-based; remark: listed apart in the source
Procedure: (§1) The same strains as in Table 18 were assessed for Minimal Biofilm Inhibitory Concentrations (MBIC) (Table 19). Italics=excellent activity (less than or equal to 4 μg/ml). ND=Not determined. Peptides 3013, 3015 and 3016 inhibited biofilm growth in the largest number of bacterial strains (5, 5 and 6 out of 13 strains, respectively).
(§2) In addition, several peptides expressed preferential activity vs. biofilms (MBIC) cf. planktonic cells (MIC) (Table 20).

E. coli (Ec) [5] = type: cell-based; remark: listed apart in the source
Procedure: as §1, §2

[6] = planktonic methicillin resistant
[7] = planktonic methicillin resistant S. aureus, broth microdilution in Mueller Hinton Broth (MHB), mean of three biological replicates
[8] = planktonic methicillin resistant S. aureus, broth microdilution in Tryptic Soy Broth (TSB) supplemented with 1% glucose, mean of three biological replicates

Substance	MCPI production in PBMC (MCP-1)	Fold Change in IL1-β relative to untreated LPS-stimulated cells (IL-1β)	% Biofilm Inhibition (S. aureus (MRSA SAP0017))	% Toxicity (LDH Release) (PBMCs)	MIC (μM) MHB [1, 6]	MIC (μM) TSB with 1% Glucose [1, 6]	MIC S. aureus (S. aureus (Sau) [2]; Sau)	MIC E. coli (E. coli (Ec) [3]; Ec)	MBIC S. aureus (S. aureus (Sau) [4]; Sau)	MBIC E. coli (E. coli (Ec) [5]; Ec)	MIC (μM) MHB [1, 7]	MIC (μM) TSB with 1% Glucose [1, 8]	MIC S. aureus (S. aureus (Sau) [2]; planktonic cells, Table 20)	MIC E. coli (E. coli (Ec) [3]; planktonic cells, Table 20)	MBIC S. aureus (S. aureus (Sau) [4]; biofilms, Table 20)	MBIC E. coli (E. coli (Ec) [5]; biofilms, Table 20)
C54 (QVVVKKKAIQVV) [Peptide C54]	651 pg/mL	0.95	101%	–	–	–	–	–	–	–	–	–	–	–	–	–
C55 (VAKVKKARWRLR) [Peptide C55]	208 pg/mL	0.92	102%	–	–	–	–	–	–	–	–	–	–	–	–	–
C56 (IIKWIVVRQIRK) [Peptide C56]	57 pg/mL	0.85	102%	–	–	–	–	–	–	–	–	–	–	–	–	–
C57 (KGKIRKIVLIRR) [Peptide C57]	157 pg/mL	0.9	102%	–	–	–	–	–	–	–	–	–	–	–	–	–
IAWQLLWGWRVR-NH2 [Peptide 3022, IAWQLLWGWRVR]	–	–	–	−4.8%	4 µM	8 µM	8 µg/mL	8 µg/mL	4 µg/mL	4 µg/mL	–	–	–	–	–	–
IKIIWKALGQVI-NH2 [Peptide 3024, IKIIWKALGQVI]	–	–	–	−1.7%	–	–	16 µg/mL	4 µg/mL	8 µg/mL	2 µg/mL	16 µM	32 µM	–	–	–	–
ILVRWIRWRIQW-NH2 [Peptide 3002, ILVRWIRWRIQW]	–	–	–	−3.7%	2 µM	4 µM	8 µg/mL	8 µg/mL	4 µg/mL	4 µg/mL	–	–	–	–	–	–
IQRWWKVWLKVI-NH2 [Peptide 3004, IQRWWKVWLKVI]	–	–	–	5.1%	4 µM	16 µM	8 µg/mL	4 µg/mL	1 µg/mL	2 µg/mL	–	–	–	–	–	–
IWLRLKVVLKRK-NH2 [Peptide 3006, IWLRLKVVLKRK]	–	–	–	2.4%	–	–	–	–	–	–	4 µM	32 µM	8 µg/mL	2 µg/mL	1 µg/mL	1 µg/mL
KIQRRAWKQWRK-NH2 [Peptide 3014, KIQRRAWKQWRK]	–	–	–	−3.7%	>64 µM	>64 µM	>64 µg/mL	64 µg/mL	64 µg/mL	64 µg/mL	–	–	–	–	–	–
KKWQLLIKWKLR-NH2 [Peptide 3008, KKWQLLIKWKLR]	–	–	–	18.8%	2 µM	4 µM	8 µg/mL	8 µg/mL	2 µg/mL	4 µg/mL	–	–	–	–	–	–
LIVIQLLKKWWK-NH2 [Peptide 3020, LIVIQLLKKWWK]	–	–	–	10.2%	8 µM	>64 µM	16 µg/mL	2 µg/mL	<1 µg/mL	1 µg/mL	–	–	–	–	–	–
RRIIKILLWKLR-NH2 [Peptide 3021, RRIIKILLWKLR]	–	–	–	13.1%	4 µM	32 µM	8 µg/mL	<1 µg/mL	1 µg/mL	2 µg/mL	–	–	–	–	–	–
RRQWRGWVRIWL-NH2 [Peptide 3005, RRQWRGWVRIWL]	–	–	–	−4.2%	4 µM	64 µM	8 µg/mL	4 µg/mL	1 µg/mL	2 µg/mL	–	–	–	–	–	–
RVKAIKWRKIVV-NH2 [Peptide 3012, RVKAIKWRKIVV]	–	–	–	2.8%	>64 µM	>64 µM	>64 µg/mL	64 µg/mL	8 µg/mL	32 µg/mL	–	–	–	–	–	–
VIKWLLKILRAI-NH2 [Peptide 3001, VIKWLLKILRAI]	–	–	–	64.4%	1 µM	2 µM	2 µg/mL	4 µg/mL	<1 µg/mL	2 µg/mL	–	–	–	–	–	–
VLKIKVKIWVVK-NH2 [Peptide 3007, VLKIKVKIWVVK]	–	–	–	2%	–	–	–	–	–	–	16 µM	>64 µM	16 µg/mL	8 µg/mL	2 µg/mL	4 µg/mL
VLQIKKVLRLLL-NH2 [Peptide 3011, VLQIKKVLRLLL]	–	–	–	15.7%	–	–	–	–	–	–	8 µM	16 µM	64 µg/mL	8 µg/mL	2 µg/mL	4 µg/mL
VQRIIWLRVKIV-NH2 [Peptide 3023, VQRIIWLRVKIV]	–	–	–	−3%	16 µM	>64 µM	4 µg/mL	2 µg/mL	2 µg/mL	1 µg/mL	–	–	–	–	–	–
WKKVQWLKRLLL-NH2 [Peptide 3003, WKKVQWLKRLLL]	–	–	–	22.5%	4 µM	16 µM	16 µg/mL	4 µg/mL	1 µg/mL	2 µg/mL	–	–	–	–	–	–
WQGWAKIWVVRI-NH2 [Peptide 3019, WQGWAKIWVVRI]	–	–	–	−3.1%	8 µM	32 µM	4 µg/mL	4 µg/mL	2 µg/mL	2 µg/mL	–	–	–	–	–	–
WVGVIIKWGLKL-NH2 [Peptide 3018, WVGVIIKWGLKL]	–	–	–	−0.3%	2 µM	4 µM	2 µg/mL	4 µg/mL	1 µg/mL	2 µg/mL	–	–	–	–	–	–
